According to patent US8933107B2, “Pesticide thiazolyloxy substituted phenylamidine derivatives” (Bayer Cropscience AG, priority 2005, dated 2015):

Legend:
[1] = test system: Puccinia recondita f. Sp. tritici; experiment: In vivo preventive test on Puccinia recondita f. Sp. tritici (wheat brown rust); conditions: topical, 240 h, 1000 ppm of active ingredient, evaluated 10 days after inoculation, read-out: efficacy
[2] = test system: Erysiphe graminis f. sp. hordei; experiment: In vivo preventive test on Erysiphe gramini (powdery mildew on barley); conditions: Blumeria graminis, 168 h, 1000 ppm of active ingredient, evaluated 7 days after inoculation, read-out: efficacy
[3] = test system: Alternaria solani; experiment: In vivo protective test on Alternaria solani (leaf spot of tomato); conditions: 168 h, 500 ppm of active ingredient, evaluated 7 days after inoculation, read-out: efficacy
[4] = test system: Podosphaera leucotricha; experiment: In vivo protective test on Podosphaera leucotricha (apples); conditions: topical, 240 h, 100 ppm of active ingredient, evaluated 10 days after inoculation, read-out: efficacy
[5] = test system: Sphaerotheca fuliginea; experiment: In vivo protective test on Sphaerotheca fuliginea (cucumbers); conditions: Podosphaera fuliginea, 168 h, 100 ppm of active ingredient, evaluated 7 days after inoculation, read-out: efficacy
[6] = physchem; conditions: reversed-phase HPLC column (C 18)
[7] = test system: Heliotis virescens; experiment: Heliotis virescens test (HELIVI spray application); assay type: in vivo; conditions: soybean leaf sections, concentration and time not stated

Row | Compound | chromatographic logP [6] | chromatographic logP ([6]; pH 2.3) | pest or weed control at 1000 ppm [1] [%] | pest or weed control at 1000 ppm [2] [%] | pest or weed control at 500 ppm [3] [%] | pest or weed control at 100 ppm [4] [%] | pest or weed control at 100 ppm [5] [%] | activity (mortality of eggs) [7]
1 | CCN(C)/C=N/c1cc(C)c(Oc2nc(C(C)C)ns2)cc1C [Compound 2.3] | 1.74 |  | ≥ 70 | ≥ 70 | ≥ 70 | ≥ 70 | ≥ 70 | 
2 | Cc1cc(Oc2nc(C(C)C)c(Cl)s2)c(C)cc1/N=C/N(C)C(C)C [Compound 1.9] | 2.57 |  | ≥ 70 | ≥ 70 | ≥ 70 | ≥ 70 | ≥ 70 | 
3 | CCN(C)/C=N/c1cc(C)c(Oc2nc(Cl)c(Cl)s2)cc1C [Compound 1.1, N′-{4-[(4,5-dichloro-1,3-thiazol-2-yl)oxy]-2,5-dimethylphenyl}-N-ethyl-N-methylimidoformamide] | 2.12 | 2.04 | ≥ 70 | ≥ 70 | ≥ 70 | ≥ 70 | ≥ 70 | 
4 | Cc1cc(Oc2nc(Cl)c(Cl)s2)c(C)cc1/N=C/N(C)C(C)C [Compound 1.3] | 2.18 |  | ≥ 70 | ≥ 70 | ≥ 70 | ≥ 70 | ≥ 70 | 
5 | Cc1cc(Oc2nc(Cl)c(Br)s2)c(C)cc1/N=C/N(C)C(C)C [Compound 1.11] | 2.22 |  | ≥ 70 | ≥ 70 |  | ≥ 70 | ≥ 70 | good activity
6 | Cc1cc(Oc2nc(Cl)c(C)s2)c(C)cc1/N=C/N(C)C(C)C [Compound 1.23] | 1.94 |  | ≥ 70 | ≥ 70 |  |  |  | good activity

The next lines start with results.

Row | chromatographic logP [6] | chromatographic logP ([6]; pH 2.3) | Compound | pest or weed control at 1000 ppm [1] [%] | pest or weed control at 1000 ppm [2] [%] | pest or weed control at 500 ppm [3] [%] | pest or weed control at 100 ppm [4] [%] | pest or weed control at 100 ppm [5] [%] | activity (mortality of eggs) [7]
7 | 2.15 |  | CCN(C)/C=N/c1cc(C)c(Oc2nc(C(F)(F)F)c(Cl)s2)cc1C [Compound 1.5] | ≥ 70 | ≥ 70 | ≥ 70 | ≥ 70 | ≥ 70 | 
8 | 1.98 |  | CCN(C)/C=N/c1cc(C)c(Oc2nc(C)c(Cl)s2)cc1C [Compound 1.12] | ≥ 70 | ≥ 70 | ≥ 70 | ≥ 70 | ≥ 70 | 
9 | 2.76 |  | CCN(C)/C=N/c1cc(C)c(Oc2nc(C(C)(C)C)c(Cl)s2)cc1C [Compound 1.4] | ≥ 70 | ≥ 70 | ≥ 70 | ≥ 70 | ≥ 70 | 
10 | 2.29 |  | Cc1cc(Oc2nc(C(F)(F)F)c(Cl)s2)c(C)cc1/N=C/N(C)C(C)C [Compound 1.10] | ≥ 70 | ≥ 70 |  | ≥ 70 | ≥ 70 | 
